Data published in patent US20250340538A1, “IMIDAZOLONE DERIVATIVES AS INHIBITORS OF PROTEIN KINASES IN PARTICULAR DYRK1A, CLK1 AND/OR CLK4” (PERHA PHARMACEUTICALS, priority 2021, published 2025).
Like-named read-outs stand apart in the source and are kept apart here.

How the values were obtained:
Type in all cases: biochemical
DYRK2 = target: T1, DYRK2 (Homo sapiens, UniProt Q92630); assay: Radiometric protein kinase assay (33PanQinase Activity Assay), DYRK2; conditions: read-out: IC50 on DYRK2 (most potent DYRK2 inhibitors)
T1 construct: GST-fusion or His-tag (not specified per kinase); purchased ProQinase GmbH; host or cells: Sf9 insect cells or E. coli (not specified per kinase)
T1 sequence (Q92630 1-601): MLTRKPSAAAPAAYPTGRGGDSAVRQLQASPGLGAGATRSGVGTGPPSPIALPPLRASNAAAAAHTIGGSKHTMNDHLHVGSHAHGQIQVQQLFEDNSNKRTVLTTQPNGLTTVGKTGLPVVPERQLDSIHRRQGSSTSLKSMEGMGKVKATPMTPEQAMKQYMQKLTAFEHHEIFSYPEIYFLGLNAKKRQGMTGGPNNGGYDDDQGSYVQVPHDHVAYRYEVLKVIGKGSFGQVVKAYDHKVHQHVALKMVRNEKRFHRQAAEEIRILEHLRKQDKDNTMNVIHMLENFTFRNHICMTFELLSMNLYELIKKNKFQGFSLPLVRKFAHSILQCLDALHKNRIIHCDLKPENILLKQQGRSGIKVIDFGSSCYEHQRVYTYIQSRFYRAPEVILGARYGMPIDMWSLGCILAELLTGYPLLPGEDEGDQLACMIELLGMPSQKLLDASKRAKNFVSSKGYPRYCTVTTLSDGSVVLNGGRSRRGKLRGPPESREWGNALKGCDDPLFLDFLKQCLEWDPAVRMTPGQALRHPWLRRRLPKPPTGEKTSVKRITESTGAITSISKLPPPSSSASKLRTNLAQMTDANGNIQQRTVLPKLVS
Experimental: (§1) Assays were performed by ProQinase GmbH (Engesserstr. 4, D-79108 Freiburg, Germany. www.proqinase.com). The IC50 profile of all compounds was determined using 12 protein kinases (CDK2/cyclin E, CK1ε, CLK1, 2, 3, 4, DYRK1A, 1B, 2, 3, 4, GSK3β).
(§2) The compounds were provided as […] in 100% DMSO. Prior to testing, the 1 μM stock solutions were subjected to a serial, semi-logarithmic dilution using 100% DMSO as a solvent. […] In the process, 90 μl H2O were added to each well of each compound dilution plate. To minimize potential precipitation, the H2O was added to each plate only a few minutes before the transfer of the compound solutions into the assay plates. The plate was shaken thoroughly, resulting in a compound dilution plate/10% DMSO.
(§3) For the assays (see below), 5 μL solution from each well of the compound dilution plates/10% DMSO were transferred into the assay plates. The final volume of the assay was 50 μL. All compounds were tested at 10 final assay concentrations in the range from 10 μM to 30 nM. The final DMSO concentration in the reaction cocktails was 1% in all cases.
(§4) All protein kinases provided by ProQinase were expressed in Sf9 insect cells or in E. coli as recombinant GST-fusion proteins or His-tagged proteins, either as full-length or enzymatically active fragments. All kinases were produced from human cDNAs and purified by either GSH-affinity chromatography or immobilized metal. Affinity tags were removed from a number of kinases during purification. The purity of the protein kinases was examined by SDS-PAGE/Coomassie staining, the identity was checked by mass spectroscopy.
(§5) A radiometric protein kinase assay (33PanQinase® Activity Assay) was used for measuring the kinase activity of the 12 protein kinases. All kinase assays were performed in 96-well FlashPlates™ from PerkinElmer (Boston, MA, USA) in a 50 μL reaction volume. The reaction cocktail was pipetted in four steps in the following order: • 25 μL of assay buffer (standard buffer/[γ-^33P]-ATP), • 10 μL of ATP solution (in H2O), • 5 μL of test compound (in 10% DMSO), • 10 μL of enzyme/substrate mixture.
(§6) The reaction cocktails were incubated at 30° C. for 60 minutes. The reaction was stopped with 50 μL of 2% (v/v) H3PO4, plates were aspirated and washed two times with 200 μL 0.9% (w/v) NaCl. Incorporation of ^33Pi was determined with a microplate scintillation counter (Microbeta, Wallac). The IC50 values for all compounds were calculated from the dose response curves
(§7) As a parameter for assay quality, the Z′-factor (Zhang et al., J. Biomol. Screen. 2: 67-73, 1999) for the low and high controls of each assay plate (n=8) was used. ProQinase's criterion for repetition of an assay plate is a Z′-factor below 0.4 (Iversen et al., J. Biomol. Screen. 3: 247-252, 2006).

CLK4 = target: T2, CLK4 (Homo sapiens, UniProt Q9HAZ1); assay: Radiometric protein kinase assay (33PanQinase Activity Assay), CLK4; conditions: read-out: IC50 on CLK4 (most potent CLK4 inhibitors)
T2 construct: GST-fusion or His-tag (not specified per kinase); purchased ProQinase GmbH; host or cells: Sf9 insect cells or E. coli (not specified per kinase)
T2 sequence (Q9HAZ1 whole entry, the tested form may be a part): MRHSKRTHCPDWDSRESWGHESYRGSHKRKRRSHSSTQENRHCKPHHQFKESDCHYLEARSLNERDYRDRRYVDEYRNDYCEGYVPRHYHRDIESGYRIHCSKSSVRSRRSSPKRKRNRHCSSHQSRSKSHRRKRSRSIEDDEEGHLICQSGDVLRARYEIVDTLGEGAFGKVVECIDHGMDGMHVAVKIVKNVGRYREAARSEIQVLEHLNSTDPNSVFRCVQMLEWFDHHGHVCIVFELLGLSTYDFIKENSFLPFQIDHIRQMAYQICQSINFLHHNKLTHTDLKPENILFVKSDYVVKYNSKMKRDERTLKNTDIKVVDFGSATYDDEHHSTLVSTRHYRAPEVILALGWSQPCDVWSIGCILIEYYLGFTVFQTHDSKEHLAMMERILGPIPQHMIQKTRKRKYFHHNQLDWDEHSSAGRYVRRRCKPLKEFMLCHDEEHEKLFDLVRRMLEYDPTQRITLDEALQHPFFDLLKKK
Experimental: as §1, §2, §3, §4, §5, §6, §7

DYRK4 = target: T3, DYRK4 (Homo sapiens, UniProt Q9NR20); assay: Radiometric protein kinase assay (33PanQinase Activity Assay), DYRK4; conditions: read-out: IC50 on DYRK4 (most potent DYRK4 inhibitors)
T3 construct: GST-fusion or His-tag (not specified per kinase); purchased ProQinase GmbH; host or cells: Sf9 insect cells or E. coli (not specified per kinase)
T3 sequence (Q9NR20 1-520): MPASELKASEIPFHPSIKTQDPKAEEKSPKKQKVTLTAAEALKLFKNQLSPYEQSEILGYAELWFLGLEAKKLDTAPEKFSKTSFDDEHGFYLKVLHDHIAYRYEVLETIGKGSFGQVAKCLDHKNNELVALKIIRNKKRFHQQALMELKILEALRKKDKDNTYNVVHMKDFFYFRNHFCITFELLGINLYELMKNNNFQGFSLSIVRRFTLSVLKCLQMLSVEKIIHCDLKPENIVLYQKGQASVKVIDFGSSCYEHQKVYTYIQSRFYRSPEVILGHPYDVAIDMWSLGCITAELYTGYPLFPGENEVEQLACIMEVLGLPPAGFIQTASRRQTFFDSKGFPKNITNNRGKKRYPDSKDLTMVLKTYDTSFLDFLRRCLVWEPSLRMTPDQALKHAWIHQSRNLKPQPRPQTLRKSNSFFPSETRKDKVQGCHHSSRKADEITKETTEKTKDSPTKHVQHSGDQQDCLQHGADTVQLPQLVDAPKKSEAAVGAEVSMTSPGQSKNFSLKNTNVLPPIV
Experimental: as §1, §2
as §3, with “cases. […]” for “cases.”
The reaction cocktails were incubated at 30° C. for 60 minutes. […] Incorporation of ^33Pi was determined with a microplate scintillation counter (Microbeta, Wallac). The IC50 values for all compounds were calculated from the dose response curves […]

DYRK1A = target: T4, DYRK1A (Homo sapiens, UniProt Q13627); assay: Radiometric protein kinase assay (33PanQinase Activity Assay), DYRK1A; conditions: for Selectivity Class DYRK1A vs. CLK1: ratio of IC50 on CLK1 over IC50 on DYRK1A; for Selectivity Class DYRK1A vs. DYRK1B: ratio of IC50 on DYRK1B over IC50 on DYRK1A
T4 construct: GST-fusion or His-tag (not specified per kinase); purchased ProQinase GmbH; host or cells: Sf9 insect cells or E. coli (not specified per kinase)
Method in brief: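 Recombinant human kinase, expressed in Sf9 or E. coli, in a radiometric [γ-33P]-ATP assay at 30 °C for 60 min. Compounds tested at 10 concentrations from 10 μM to 30 nM, 1% DMSO final. 33Pi incorporation measured by scintillation counting; IC50 from dose-response curves.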

CLK1 = target: T5, CLK1 (Homo sapiens, UniProt P49759); assay: Radiometric protein kinase assay (33PanQinase Activity Assay), CLK1
T5 construct: GST-fusion or His-tag (not specified per kinase); purchased ProQinase GmbH; host or cells: Sf9 insect cells or E. coli (not specified per kinase)
T5 sequence (P49759 whole entry, the tested form may be a part): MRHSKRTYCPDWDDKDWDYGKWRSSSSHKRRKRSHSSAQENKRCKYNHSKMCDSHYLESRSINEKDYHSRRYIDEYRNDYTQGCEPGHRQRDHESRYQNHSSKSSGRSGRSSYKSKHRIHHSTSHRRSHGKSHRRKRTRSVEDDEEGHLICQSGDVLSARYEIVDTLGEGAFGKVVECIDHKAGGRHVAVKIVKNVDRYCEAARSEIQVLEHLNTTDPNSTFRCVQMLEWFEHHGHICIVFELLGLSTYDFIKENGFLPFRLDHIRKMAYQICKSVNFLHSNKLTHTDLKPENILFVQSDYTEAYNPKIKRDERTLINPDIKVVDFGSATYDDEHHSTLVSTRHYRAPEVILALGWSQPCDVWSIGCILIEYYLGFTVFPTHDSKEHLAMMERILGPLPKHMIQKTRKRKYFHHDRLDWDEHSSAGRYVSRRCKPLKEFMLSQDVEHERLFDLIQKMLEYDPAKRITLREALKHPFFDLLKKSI
Method in brief: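 Semi-log compound dilutions, ten final concentrations between 10 μM and 30 nM, went into reactions containing [γ-33P]-ATP and recombinant human enzyme with substrate. After 60 minutes at 30 °C the reaction was stopped with phosphoric acid, and radiolabel incorporation gave IC50 values.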

DYRK1B = target: T6, DYRK1B (Homo sapiens, UniProt Q9Y463); assay: Radiometric protein kinase assay (33PanQinase Activity Assay), DYRK1B; conditions: read-out: IC50 on DYRK1B (most potent DYRK1B inhibitors)
T6 construct: GST-fusion or His-tag (not specified per kinase); purchased ProQinase GmbH; host or cells: Sf9 insect cells or E. coli (not specified per kinase)
T6 sequence (Q9Y463 whole entry, the tested form may be a part): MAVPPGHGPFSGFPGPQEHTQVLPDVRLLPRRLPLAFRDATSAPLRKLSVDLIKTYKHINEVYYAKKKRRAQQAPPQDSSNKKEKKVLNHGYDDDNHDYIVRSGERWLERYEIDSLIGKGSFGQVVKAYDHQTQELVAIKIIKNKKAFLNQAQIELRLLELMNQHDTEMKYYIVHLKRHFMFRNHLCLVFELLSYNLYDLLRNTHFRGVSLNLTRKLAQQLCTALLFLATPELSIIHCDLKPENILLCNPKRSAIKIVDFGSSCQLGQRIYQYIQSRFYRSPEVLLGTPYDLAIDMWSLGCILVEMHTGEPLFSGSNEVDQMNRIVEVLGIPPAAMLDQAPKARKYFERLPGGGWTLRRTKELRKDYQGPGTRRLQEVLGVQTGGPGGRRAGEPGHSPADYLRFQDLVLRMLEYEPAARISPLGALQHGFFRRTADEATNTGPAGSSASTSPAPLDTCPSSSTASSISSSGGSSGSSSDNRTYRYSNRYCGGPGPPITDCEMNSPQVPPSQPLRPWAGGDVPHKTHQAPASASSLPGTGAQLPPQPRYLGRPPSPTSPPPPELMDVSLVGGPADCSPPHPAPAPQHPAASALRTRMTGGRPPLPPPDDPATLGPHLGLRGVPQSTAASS
Experimental: as §1, §2, §3, §4, §5, §6, §7

DYRK3 = target: T7, DYRK3 (Homo sapiens, UniProt O43781); assay: Radiometric protein kinase assay (33PanQinase Activity Assay), DYRK3; conditions: read-out: IC50 on DYRK3 (most potent DYRK3 inhibitors)
T7 construct: GST-fusion or His-tag (not specified per kinase); purchased ProQinase GmbH; host or cells: Sf9 insect cells or E. coli (not specified per kinase)
T7 sequence (O43781 1-588): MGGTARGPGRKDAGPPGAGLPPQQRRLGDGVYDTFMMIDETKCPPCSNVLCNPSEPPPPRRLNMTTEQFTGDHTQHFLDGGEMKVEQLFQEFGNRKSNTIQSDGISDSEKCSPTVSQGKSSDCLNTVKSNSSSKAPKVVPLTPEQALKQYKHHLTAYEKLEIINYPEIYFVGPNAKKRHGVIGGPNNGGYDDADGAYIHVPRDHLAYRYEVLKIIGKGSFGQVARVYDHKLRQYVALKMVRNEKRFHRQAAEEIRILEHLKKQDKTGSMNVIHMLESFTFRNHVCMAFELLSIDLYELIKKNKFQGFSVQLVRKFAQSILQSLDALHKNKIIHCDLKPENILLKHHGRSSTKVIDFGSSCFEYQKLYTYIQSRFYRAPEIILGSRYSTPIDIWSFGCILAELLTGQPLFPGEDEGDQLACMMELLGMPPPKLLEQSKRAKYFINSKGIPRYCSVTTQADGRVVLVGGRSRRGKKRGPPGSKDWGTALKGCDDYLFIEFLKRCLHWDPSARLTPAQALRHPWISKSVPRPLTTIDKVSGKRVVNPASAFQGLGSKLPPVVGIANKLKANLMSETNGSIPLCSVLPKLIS
Experimental: as §1, §2, §3, §4, §5, §6, §7

CLK2 = target: T8, CLK2 (Homo sapiens, UniProt P49760); assay: Radiometric protein kinase assay (33PanQinase Activity Assay), CLK2; conditions: read-out: IC50 on CLK2 (most potent CLK2 inhibitors)
T8 construct: GST-fusion or His-tag (not specified per kinase); purchased ProQinase GmbH; host or cells: Sf9 insect cells or E. coli (not specified per kinase)
T8 sequence (P49760 whole entry, the tested form may be a part): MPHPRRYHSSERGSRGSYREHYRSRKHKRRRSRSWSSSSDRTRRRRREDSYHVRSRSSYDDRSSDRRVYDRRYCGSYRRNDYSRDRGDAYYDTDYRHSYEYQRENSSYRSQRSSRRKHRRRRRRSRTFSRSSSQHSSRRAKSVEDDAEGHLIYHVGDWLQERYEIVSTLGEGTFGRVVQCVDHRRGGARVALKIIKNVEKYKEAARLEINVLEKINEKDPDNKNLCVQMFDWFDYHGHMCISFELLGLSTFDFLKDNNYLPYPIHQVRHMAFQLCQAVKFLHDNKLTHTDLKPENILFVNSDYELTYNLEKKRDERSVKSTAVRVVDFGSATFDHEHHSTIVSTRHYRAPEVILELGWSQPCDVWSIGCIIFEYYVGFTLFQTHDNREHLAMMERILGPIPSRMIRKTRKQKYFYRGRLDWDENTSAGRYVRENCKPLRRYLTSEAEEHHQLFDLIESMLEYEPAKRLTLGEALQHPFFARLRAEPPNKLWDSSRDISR
Experimental: as §1, §2, §3, §4, §5, §6, §7

CLK3 = target: T9, CLK3 (Homo sapiens, UniProt P49761); assay: Radiometric protein kinase assay (33PanQinase Activity Assay), CLK3; conditions: read-out: IC50 on CLK3 (most potent CLK3 inhibitors)
T9 construct: GST-fusion or His-tag (not specified per kinase); purchased ProQinase GmbH; host or cells: Sf9 insect cells or E. coli (not specified per kinase)
T9 sequence (P49761 whole entry, the tested form may be a part): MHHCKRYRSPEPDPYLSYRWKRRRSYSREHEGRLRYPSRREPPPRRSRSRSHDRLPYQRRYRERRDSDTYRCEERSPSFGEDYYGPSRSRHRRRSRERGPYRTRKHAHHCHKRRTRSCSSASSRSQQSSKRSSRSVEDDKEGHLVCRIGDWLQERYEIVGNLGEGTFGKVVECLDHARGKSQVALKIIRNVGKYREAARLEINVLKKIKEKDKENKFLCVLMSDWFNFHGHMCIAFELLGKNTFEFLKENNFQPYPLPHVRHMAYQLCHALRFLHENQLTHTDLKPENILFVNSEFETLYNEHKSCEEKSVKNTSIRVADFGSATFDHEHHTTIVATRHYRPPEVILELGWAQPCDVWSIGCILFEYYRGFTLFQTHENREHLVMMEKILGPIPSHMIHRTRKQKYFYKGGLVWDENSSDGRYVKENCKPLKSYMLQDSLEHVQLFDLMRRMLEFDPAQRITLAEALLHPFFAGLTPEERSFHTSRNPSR
Experimental: as §1, §2, §3, §4, §5, §6, §7

[1] = IC50 class A to E, read-out: Potency Class DYRK1A
[2] = class by IC50 on DYRK1A, from dose-response curves, read-out: Potency Class DYRK1A
[3] = read-out: IC50 on DYRK1A (most potent DYRK1A inhibitors)
[4] = IC50 class A to E, read-out: Potency Class CLK1
[5] = class by IC50 on CLK1, from dose-response curves, read-out: Potency Class CLK1

IC50 (DYRK2) [µM]	IC50 (CLK4) [µM]	IC50 (DYRK4) [µM]	IC50 (DYRK1A; [1]) [µM]	IC50 (DYRK1A; [2]) [µM]	Selectivity Class DYRK1A vs. DYRK1B (DYRK1A)	IC50 (DYRK1A; [3]) [µM]	IC50 (CLK1; [4]) [µM]	IC50 (CLK1; [5]) [µM]	IC50 (DYRK1B) [µM]	IC50 (DYRK3) [µM]	IC50 (CLK2) [µM]	IC50 (CLK3) [µM]	IC50 (CLK1; read-out: IC50 on CLK1 (most potent CLK1 inhibitors)) [µM]	Compound	Selectivity Class DYRK1A vs. CLK1 (DYRK1A)
≤ 0.25	≤ 0.01	≤ 0.3	0.005 to 0.01	0.005 to 0.01	II (ratio between 2 and 10 fold)	≤ 0.01	> 0.05	> 0.05						O=C1NC(NC23CC4CC(CC2C4)C3)=N/C1=C\c1ccc2nccnc2c1 [Compound 16, (4Z)-2-(3-noradamantylamino)-4-(quinoxalin-6-ylmethylene)-1H-imidazol-5-one]	I (ratio of IC50 on CLK1 or DYRK1B over IC50 on DYRK1A ≥10 fold (most DYRK1A-selective compounds))
	≤ 0.01		≤ 0.005	< 0.005	II (ratio between 2 and 10 fold)	≤ 0.01	0.005 to 0.01	0.005 to 0.01	≤ 0.01	≤ 0.25	≤ 0.1	≤ 0.5	≤ 0.01	O=C1NC(NC23CC4CC(CC(C4)C2)C3)=N/C1=C\c1ccc2ncccc2n1 [Compound 70, (4Z)-2-(1-adamantylamino)-4-(1,5-naphthyridin-2-ylmethylene)-1H-imidazol-5-one]	II (ratio between 2 and 10 fold)
